{"source": "patent USRE40387E1", "about": "“Pharmaceutical compositions, dosage forms and methods for oral administration of epothilones” (Bristol-Myers Squibb Company, priority 2001, dated 2008)", "key": {"CYP2C9": {"target": "CYP2C9 (Homo sapiens, UniProt P11712)", "sequence (P11712 whole entry, canonical isoform)": "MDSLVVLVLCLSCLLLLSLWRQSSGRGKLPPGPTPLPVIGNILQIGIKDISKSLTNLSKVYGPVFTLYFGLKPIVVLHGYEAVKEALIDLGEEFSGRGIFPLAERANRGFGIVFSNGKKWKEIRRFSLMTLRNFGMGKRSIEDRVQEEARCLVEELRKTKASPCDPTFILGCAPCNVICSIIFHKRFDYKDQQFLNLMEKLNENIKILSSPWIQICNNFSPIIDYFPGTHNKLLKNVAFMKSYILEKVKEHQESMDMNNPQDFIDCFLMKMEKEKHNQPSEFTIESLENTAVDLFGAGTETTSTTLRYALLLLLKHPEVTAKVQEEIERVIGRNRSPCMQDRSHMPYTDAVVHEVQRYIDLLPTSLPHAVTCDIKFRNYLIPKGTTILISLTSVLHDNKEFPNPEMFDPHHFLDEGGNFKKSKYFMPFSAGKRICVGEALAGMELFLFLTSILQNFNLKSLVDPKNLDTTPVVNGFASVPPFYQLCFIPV", "experiment": "Inhibition of recombinant human CYP2C9 (deethylation of 3-cyano-7-ethoxycoumarin)", "type": "in vitro ADME", "conditions": "recombinant human CYP isoform", "procedure": "(§1) The ability of Compound (A) to inhibit the major human cytochrome P450s (CYPs) responsible for the metabolism of drugs was evaluated in vitro using recombinant human CYP isoforms. IC50 values for inhibition of deethylation of 3-cyano-7-ethoxycoumarin (CYP1A2, CYP2C9, CYP2C19, and CYP2D6) and for inhibition of dealkylation of benzoyl-resorufin (CYP3A4) were determined."}, "CYP1A2": {"target": "T1, CYP1A2 (Homo sapiens, UniProt P05177)", "T1 sequence (P05177 1-516)": "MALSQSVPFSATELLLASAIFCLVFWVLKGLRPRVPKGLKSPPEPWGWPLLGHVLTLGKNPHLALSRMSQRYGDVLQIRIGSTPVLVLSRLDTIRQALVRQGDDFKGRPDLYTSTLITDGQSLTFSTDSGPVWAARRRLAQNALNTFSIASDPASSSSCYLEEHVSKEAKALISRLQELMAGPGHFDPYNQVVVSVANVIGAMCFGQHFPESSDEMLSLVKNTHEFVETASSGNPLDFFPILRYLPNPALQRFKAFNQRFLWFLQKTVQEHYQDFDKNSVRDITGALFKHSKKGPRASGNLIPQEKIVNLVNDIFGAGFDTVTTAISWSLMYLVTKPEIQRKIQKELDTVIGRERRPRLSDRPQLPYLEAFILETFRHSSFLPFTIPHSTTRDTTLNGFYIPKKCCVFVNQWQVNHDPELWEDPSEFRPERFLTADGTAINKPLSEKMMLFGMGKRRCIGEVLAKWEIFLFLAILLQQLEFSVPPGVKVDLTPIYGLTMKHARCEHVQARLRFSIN", "experiment": "Inhibition of recombinant human CYP1A2 (deethylation of 3-cyano-7-ethoxycoumarin)", "type": "in vitro ADME", "conditions": "recombinant human CYP isoform", "procedure": "as §1"}, "[1]": {"experiment": "Pharmacokinetics in mice (IV and oral)", "type": "in vivo, female CDF", "procedure": "(§2) Plasma samples from pharmacokinetic/pharmacodynamic studies were analyzed for the concentration of Compound (A) using an LC/MS/MS (liquid chromatography/mass spectrometry/mass spectrometry) assay with a standard curve range of 5 to 20,000 ng/mL (10 to 40,000 nM) for studies in mice and 2 to 1000 ng/mL (4 to 2000 nM) for studies in rats and dogs. In pharmacodynamic studies, concentrations of Compound (A) were determined using the LC/MS/MS assay with a standard curve range of 5 to 20,000 ng/mL (10 to 40,000 nM) in mouse plasma. The LC/MS/MS assay was also used to determine the concentrations of Compound (B), a degradation product of Compound (A) formed in the stock/dosing solution or in vivo, in rat and dog plasma. The structure of Compound (B) is: [drawing 9]\nCompound (A) was administered intravenously (5 mg/kg) and orally (48 mg/kg) to female CDF, mice. For the IV route, Compound (A) was dissolved in 20% ethanol solution and was given as a bolus dose. For the oral route, solutions of Compound (A) were prepared as a 3:7 mixture of ethanol:phosphate buffered saline (0.25 M, pH 8.0) and administered by gavage. Plasma samples for determinating concentrations of Compound (A) were taken from 3 separate mice at 5, 15, and 45 min, and 2, 4, and 6 h after the IV dose, and at 15 and 45 min, and 2, 4, and 6 h after the oral dose."}, "[2]": {"experiment": "Single dose oral toxicity study in dogs", "type": "in vivo", "conditions": "oral solution 0.4 mL/kg", "procedure": "The mean (SD) [n=3] […] Although the oral formulation for both studies was identical, the total volume of the oral solution administered in the current study was about 1.3 mL/kg while that in the toxicology study was 0.4 mL/kg. […] Compound (A) is an acid labile drug, thus, the higher exposure after oral solution in the current study compared to the toxicology study is likely related to better protection from gastric acid degradation."}, "rat liver microsomes": {"tested_on": "rat liver microsomes", "experiment": "Oxidative metabolism in rat liver microsomes", "type": "in vitro ADME", "conditions": "40 :M, NADPH", "procedure": "(§3) Upon incubation of Compound (A) (40 :M) with mouse, rat, dog, and human liver microsomes fortified with nicotinamide adenine dinucleotide phosphate (NADPH), the rate of oxidative metabolism of Compound (A) was 2.1, 0.7, 1.2 and 1.3 nmol/min/mg protein, respectively. Moreover, the metabolite distribution was similar among all species (metabolite masses included several […] and M−2 compounds). Qualitatively, there appeared to be similar production of metabolites of Compound (A) after incubation with rat or human hepatocytes compared to microsomal incubations. Products similar to those arising from the chemical degradation of Compound (A) appeared to be the major products in the hepatocyte incubations."}, "CYP2C19": {"target": "CYP2C19 (Homo sapiens, UniProt P33261)", "sequence (P33261 whole entry, canonical isoform)": "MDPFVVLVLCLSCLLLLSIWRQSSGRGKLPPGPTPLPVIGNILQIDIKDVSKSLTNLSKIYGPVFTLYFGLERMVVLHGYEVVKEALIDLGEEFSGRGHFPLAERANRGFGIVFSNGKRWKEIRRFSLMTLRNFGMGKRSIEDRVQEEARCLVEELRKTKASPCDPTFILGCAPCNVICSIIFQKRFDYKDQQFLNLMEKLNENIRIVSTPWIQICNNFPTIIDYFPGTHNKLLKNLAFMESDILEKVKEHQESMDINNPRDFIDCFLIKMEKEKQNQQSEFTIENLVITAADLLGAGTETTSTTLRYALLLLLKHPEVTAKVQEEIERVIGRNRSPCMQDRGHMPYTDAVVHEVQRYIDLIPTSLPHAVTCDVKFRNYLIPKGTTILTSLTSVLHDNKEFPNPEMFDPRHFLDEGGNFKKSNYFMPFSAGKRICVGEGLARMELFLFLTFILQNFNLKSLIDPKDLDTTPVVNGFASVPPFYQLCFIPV", "experiment": "Inhibition of recombinant human CYP2C19 (deethylation of 3-cyano-7-ethoxycoumarin)", "type": "in vitro ADME", "conditions": "recombinant human CYP isoform", "procedure": "as §1"}, "dog liver microsomes": {"tested_on": "dog liver microsomes", "experiment": "Oxidative metabolism in dog liver microsomes", "type": "in vitro ADME", "conditions": "40 :M, NADPH", "procedure": "as §3"}, "[3]": {"experiment": "Pharmacokinetics in rats (intraarterial, oral, intraduodenal)", "type": "in vivo, male Sprague Dawley rats", "procedure": "as §2\nCompound (A) was given as a single intraarterial (2 mg/kg; 10 min infusion), oral (8 mg/kg), and intraduodenal (8 mg/kg) dose to fasted male Sprague Dawley rats (n×3-6 per group). All dosing solutions were prepared in 20% ethanol. Plasma samples were obtained over a period of 24 h after dosing and the concentration of Compound (A) was determined using the LC/MS/MS assay."}, "CYP2D6": {"target": "CYP2D6 (Homo sapiens, UniProt P10635)", "sequence (P10635 whole entry, canonical isoform)": "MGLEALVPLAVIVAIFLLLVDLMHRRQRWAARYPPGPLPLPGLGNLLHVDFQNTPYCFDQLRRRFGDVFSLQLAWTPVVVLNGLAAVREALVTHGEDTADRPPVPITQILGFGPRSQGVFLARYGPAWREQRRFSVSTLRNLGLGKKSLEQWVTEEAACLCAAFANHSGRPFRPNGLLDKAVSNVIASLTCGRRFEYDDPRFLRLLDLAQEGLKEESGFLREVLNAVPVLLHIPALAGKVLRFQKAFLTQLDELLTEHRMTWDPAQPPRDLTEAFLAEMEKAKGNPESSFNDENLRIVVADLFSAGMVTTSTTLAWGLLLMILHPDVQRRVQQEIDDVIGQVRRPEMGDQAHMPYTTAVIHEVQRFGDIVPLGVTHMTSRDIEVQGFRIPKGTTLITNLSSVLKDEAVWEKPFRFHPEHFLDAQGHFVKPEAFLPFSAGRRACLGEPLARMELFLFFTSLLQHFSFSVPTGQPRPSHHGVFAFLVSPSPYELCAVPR", "experiment": "Inhibition of recombinant human CYP2D6 (deethylation of 3-cyano-7-ethoxycoumarin)", "type": "in vitro ADME", "conditions": "recombinant human CYP isoform", "procedure": "as §1"}, "[4]": {"tested_on": "Caco-2 cell culture system", "experiment": "Caco-2 cell permeability", "procedure": "The Pc of some model compounds, for which the bioavailability in humans is known, was also determined in the same experiment."}}}
{"compound": "C/C(=C\\c1csc(C)n1)[C@@H]1C[C@@H]2O[C@]2(C)CCC[C@H](C)[C@H](O)[C@@H](C)C(=O)C(C)(C)[C@@H](O)CC(=O)N1", "note": "(relative stereo) [Compound (A), [1S-[1R*,3R*(E),7R*,10S*,11R*,12R*,16S*]]-7,11-dihydroxy 8,8,10,12,16-pentamethyl-3-[1-methyl-2-(2-methyl-4-thiazolyl)ethenyl-4-aza-17-oxobicyclo[14.1.0]heptadecane-5,9-dione]", "values": [{"measurement": "inhibition of CYP2C9", "setting": "CYP2C9", "result": "did not inhibit"}, {"measurement": "inhibition of CYP1A2", "setting": "CYP1A2", "result": "did not inhibit"}, {"measurement": "steady-state volume of distribution (VSS)", "setting": "[1]; IV 5 mg/kg", "result": 6.3, "unit": "L/kg"}, {"measurement": "terminal elimination half-life (T-HALF)", "setting": "[1]; IV 5 mg/kg", "result": "approximately 3 h"}, {"measurement": "CLT as percent of liver blood flow", "setting": "[1]; IV 5 mg/kg, liver blood flow 90 mL/min/kg", "result": 76, "unit": "%"}, {"measurement": "systemic clearance or total body clearance (CLT)", "setting": "[1]; IV bolus 5 mg/kg", "result": 68, "unit": "mL/min/kg"}, {"measurement": "absolute oral bioavailability", "setting": "[1]; oral 48 mg/kg vs IV 5 mg/kg", "result": 31, "unit": "%"}, {"measurement": "peak plasma concentration (CMAX)", "setting": "[1]; oral 48 mg/kg, ethanol:phosphate buffered saline 3:7", "result": 5983, "unit": "ng/mL"}, {"measurement": "dose-normalized mean AUC", "setting": "[2]", "result": 257, "unit": "ng·h/mL"}, {"measurement": "rate of oxidative metabolism", "setting": "rat liver microsomes", "result": 0.7, "unit": "nmol/min/mg protein"}, {"measurement": "inhibition of CYP2C19", "setting": "CYP2C19", "result": "did not inhibit"}, {"measurement": "rate of oxidative metabolism", "setting": "dog liver microsomes", "result": 1.2, "unit": "nmol/min/mg protein"}, {"measurement": "CLT (mean)", "setting": "[3]; intraarterial 2 mg/kg", "result": 56, "unit": "mL/min/kg"}, {"measurement": "VSS (mean)", "setting": "[3]; intraarterial 2 mg/kg", "result": 23, "unit": "L/kg"}, {"measurement": "mean T-HALF", "setting": "[3]; intraarterial 2 mg/kg", "result": 9.6, "unit": "h"}, {"measurement": "CLT as percent of liver blood flow", "setting": "[3]; intraarterial 2 mg/kg, liver blood flow 56 mL/min/kg", "result": 100, "unit": "%"}, {"measurement": "Tmax", "setting": "[3]; intraduodenal 8 mg/kg", "result": 4.8, "unit": "min"}, {"measurement": "absolute oral bioavailability", "setting": "[3]; intraduodenal 8 mg/kg", "result": 27, "unit": "%"}, {"measurement": "mean CMAX", "setting": "[3]; intraduodenal 8 mg/kg", "result": 642, "unit": "ng/mL"}, {"measurement": "Tmax", "setting": "[3]; oral 8 mg/kg", "result": 10.2, "unit": "min"}, {"measurement": "absolute oral bioavailability", "setting": "[3]; oral 8 mg/kg", "result": 7.5, "unit": "%"}, {"measurement": "mean CMAX", "setting": "[3]; oral 8 mg/kg", "result": 228, "unit": "ng/mL"}, {"measurement": "inhibition of CYP2D6", "setting": "CYP2D6", "result": "did not inhibit"}, {"measurement": "permeability coefficient (Pc)", "setting": "[4]; Caco-2, 10 pM (Ca 5 pg/mL)", "result": 9.4, "unit": "×10⁻⁶ cm/s"}, {"measurement": "permeability coefficient (Pc)", "setting": "[4]; Caco-2, 30 pM (Ca 15 pg/mL)", "result": 10.5, "unit": "×10⁻⁶ cm/s"}, {"measurement": "permeability coefficient (Pc)", "setting": "[4]; Caco-2, 100 pM (Ca 50 pg/mL)", "result": 12.8, "unit": "×10⁻⁶ cm/s"}]}
